Experimental data reported in ChEMBL document CHEMBL1201862, “PubChem BioAssay data set” (2004).
Where “and” joins values, the source holds several entries; their conditions need not be identical. Equal entries are not always repeated. Calls of active or inactive are those of the source.

Columns and labels:
[1] = molecular target: G-protein coupled receptor 55 (Homo sapiens, UniProt Q9Y2T6); assay: GPR55 agonists via beta-arrestin recruitment, primary screen, imaging, U2OS cells, beta-arrestin-GFP redistribution (AID 1961); assay type: functional
Chain of G-protein coupled receptor 55 (Q9Y2T6 whole entry): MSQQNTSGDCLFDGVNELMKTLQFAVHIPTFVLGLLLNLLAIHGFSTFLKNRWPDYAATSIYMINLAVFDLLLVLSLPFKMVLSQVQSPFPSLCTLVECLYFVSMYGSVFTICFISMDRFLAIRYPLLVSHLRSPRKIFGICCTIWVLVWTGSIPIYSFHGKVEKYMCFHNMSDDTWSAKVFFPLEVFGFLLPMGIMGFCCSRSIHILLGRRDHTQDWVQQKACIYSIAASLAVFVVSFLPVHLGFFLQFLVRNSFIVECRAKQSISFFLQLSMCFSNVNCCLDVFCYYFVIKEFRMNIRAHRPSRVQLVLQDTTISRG

[2] = inhibitors of intracellular T. cruzi replication, confirmation, NIH3T3 host cells, beta-gal luminescence (AID 2044); assay type: functional, cell-based;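 note: intracellular parasites grown in NIH/3T3 mouse fibroblasts as host cells; luminescent beta-galactosidase reporter signal from transgenic T. cruzi replicating inside host cells; inhibitors lower the luminescence signal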
[3] = NIH-3T3 fibroblast cytotoxicity, dose response, cytotoxicity control, cell-based, fluorescence, Alamar Blue, secondary assay (AID 2327); assay type: functional;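 note: NIH-3T3 mouse fibroblasts cultured with fluconazole at 8 µg/mL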
[4] = CEM21 lymphoblast cell cytotoxicity, dose response, cytotoxicity control for viral fusion inhibitor project, CellTiter-Glo luminescence, cherry-picked (AID 652042); assay type: functional, cell-based;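 note: potency for signal decrease meaning cytotoxicity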
[5] = molecular target: T1, Apoptotic protease-activating factor 1 (Homo sapiens, UniProt O14727); assay type: functional
T1 sequence (O14727 whole entry): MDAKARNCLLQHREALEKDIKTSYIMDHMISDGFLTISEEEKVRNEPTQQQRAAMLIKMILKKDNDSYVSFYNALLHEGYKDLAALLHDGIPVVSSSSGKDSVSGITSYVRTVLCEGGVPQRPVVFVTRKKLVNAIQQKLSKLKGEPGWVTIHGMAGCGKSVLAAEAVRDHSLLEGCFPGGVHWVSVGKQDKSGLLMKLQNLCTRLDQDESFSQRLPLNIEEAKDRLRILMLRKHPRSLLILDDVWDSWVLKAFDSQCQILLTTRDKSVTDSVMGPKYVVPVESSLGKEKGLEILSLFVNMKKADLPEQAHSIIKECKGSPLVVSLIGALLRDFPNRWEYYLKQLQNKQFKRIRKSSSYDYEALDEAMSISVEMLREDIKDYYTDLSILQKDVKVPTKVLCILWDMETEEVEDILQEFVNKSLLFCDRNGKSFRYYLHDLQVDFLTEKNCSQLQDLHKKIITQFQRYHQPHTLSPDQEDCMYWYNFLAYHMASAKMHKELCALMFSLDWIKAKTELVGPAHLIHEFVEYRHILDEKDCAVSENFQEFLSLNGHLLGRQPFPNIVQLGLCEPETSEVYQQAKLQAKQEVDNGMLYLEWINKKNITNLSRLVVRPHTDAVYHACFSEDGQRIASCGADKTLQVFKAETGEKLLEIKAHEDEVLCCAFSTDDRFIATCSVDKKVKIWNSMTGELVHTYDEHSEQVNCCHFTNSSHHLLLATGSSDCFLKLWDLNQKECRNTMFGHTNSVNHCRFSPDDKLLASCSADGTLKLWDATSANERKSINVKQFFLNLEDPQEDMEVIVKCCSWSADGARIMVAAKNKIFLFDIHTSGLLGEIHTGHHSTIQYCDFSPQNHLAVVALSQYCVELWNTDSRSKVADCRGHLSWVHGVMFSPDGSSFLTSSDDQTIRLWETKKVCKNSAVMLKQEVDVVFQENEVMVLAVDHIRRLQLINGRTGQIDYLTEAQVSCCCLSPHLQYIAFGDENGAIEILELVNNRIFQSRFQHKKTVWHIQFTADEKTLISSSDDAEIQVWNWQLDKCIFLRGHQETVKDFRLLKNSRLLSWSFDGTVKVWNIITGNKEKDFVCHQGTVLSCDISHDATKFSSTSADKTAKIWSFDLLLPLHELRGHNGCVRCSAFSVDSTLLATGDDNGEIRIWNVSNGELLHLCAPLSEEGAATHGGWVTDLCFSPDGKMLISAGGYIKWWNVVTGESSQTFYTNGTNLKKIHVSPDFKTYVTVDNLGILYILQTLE

[6] = ZM109 Env clade C HIV-1 fusion inhibitors, dose response, HeLa effector, CEM target cells, luciferase, cherry-pick (AID 652058); assay type: functional, cell-based
[7] = C. albicans growth with fluconazole, confirmation, fluorescence, retest (AID 2467); assay type: functional, cell-based
A-375 = assay: A375 melanoma cell viability reduction, dose response, counter-screen for MITF modulator project, cherry-pick samples, set 2 (AID 540335); assay type: functional, cell-based; details: Homo sapiens
INS1 = assay: beta cell apoptosis inhibitors, cytokine rescue, dose response, luminescence, retest (AID 449756); assay type: functional, cell-based; details: Rattus norvegicus;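 note: cell death triggered by IL-1 beta plus TNF-alpha plus IFN-gamma mixture; protective hits raise ATP signal compared with cytokine alone wells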
[8] = molecular target: T2, Ubiquitin-conjugating enzyme E2 N (Homo sapiens, UniProt P61088); assay type: functional;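 note: Dose-response confirmation in a TR-FRET assay detecting UBC13-driven polyubiquitin chain formation, inhibition measured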
T2 sequence (P61088 whole entry): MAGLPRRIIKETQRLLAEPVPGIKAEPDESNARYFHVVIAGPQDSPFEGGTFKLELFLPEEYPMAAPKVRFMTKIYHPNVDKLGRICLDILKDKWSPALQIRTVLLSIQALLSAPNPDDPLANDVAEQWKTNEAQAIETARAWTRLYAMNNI

[9] = inhibitors of HIV Env-driven cell fusion, dose response, cherry-pick (AID 652057); assay type: functional, cell-based
[10] = inhibitors of clade B AD8 Env fusion, dose response, cell-based, cherry-pick (AID 652062); assay type: functional;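 note: luciferase signal from cell-cell fusion driven by HIV-1 clade B AD8 Env; potency is for inhibitors of fusion seen as a drop in luminescence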
X-box-binding protein 1 = molecular target: T3, X-box-binding protein 1 (Homo sapiens, UniProt P17861); assay type: functional, Cricetulus griseus;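 note: confirmatory dose-response counter-screen serving a CHOP assay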
T3 sequence (P17861 whole entry): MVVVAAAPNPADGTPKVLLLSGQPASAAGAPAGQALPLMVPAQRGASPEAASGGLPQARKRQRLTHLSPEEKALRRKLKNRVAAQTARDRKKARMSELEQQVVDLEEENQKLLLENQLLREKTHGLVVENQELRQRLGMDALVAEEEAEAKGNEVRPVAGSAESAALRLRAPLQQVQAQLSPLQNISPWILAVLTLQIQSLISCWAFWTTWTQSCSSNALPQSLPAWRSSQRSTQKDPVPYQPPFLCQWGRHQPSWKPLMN

[11] = insulin promoter down-regulators in MIN6 cells, imaging, high-content screening, mouse beta cells (AID 1628); assay type: functional
[12] = molecular target: T4, Microphthalmia-associated transcription factor (Homo sapiens, UniProt O75030); assay: TRPM1 promoter luciferase signal decrease, dose response, MITF inhibitor project, cell-based, SK-MEL-5, cherry-picked, set 3 (AID 493073); assay type: functional
T4 sequence (O75030 whole entry): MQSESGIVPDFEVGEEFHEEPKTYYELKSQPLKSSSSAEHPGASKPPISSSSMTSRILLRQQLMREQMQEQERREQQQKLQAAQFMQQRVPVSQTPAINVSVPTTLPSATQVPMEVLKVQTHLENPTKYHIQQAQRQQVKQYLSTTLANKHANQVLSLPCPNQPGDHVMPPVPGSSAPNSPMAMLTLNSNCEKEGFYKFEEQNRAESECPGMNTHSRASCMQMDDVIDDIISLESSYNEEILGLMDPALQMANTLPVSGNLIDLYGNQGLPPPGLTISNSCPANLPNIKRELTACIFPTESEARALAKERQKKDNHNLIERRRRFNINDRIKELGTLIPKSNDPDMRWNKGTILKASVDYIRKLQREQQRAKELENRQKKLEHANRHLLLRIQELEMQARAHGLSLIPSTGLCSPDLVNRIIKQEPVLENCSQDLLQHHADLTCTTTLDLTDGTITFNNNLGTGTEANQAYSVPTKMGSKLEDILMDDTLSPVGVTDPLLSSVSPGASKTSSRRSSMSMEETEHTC

[13] = off-target signal loss in HeLa-CEM21 co-culture – HeLa F-luc CTL cells, cherry-picked, counter-screen for HIV-1 Env fusion inhibitor project, dose response (AID 652040); assay type: functional, cell-based;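 note: potency for signal decrease marking cytotoxic or nonspecific inhibition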
[14] = cytotoxicity in MIN6 insulinoma cells, dose response, cytotoxicity control, cell-based, mouse insulinoma (AID 2122); assay type: functional;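 note: confirmatory high-throughput counterscreen run to flag cytotoxic compounds; mouse MIN-6 beta cells carrying an insulin promoter eGFP reporter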
Phospholipase A2 = Phospholipase A2 (Homo sapiens, UniProt P04054); assay type: functional;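 note: confirmatory dose-response counterscreen on phospholipase A2, testing hits that came from an ultra-high-throughput screen for ATG4B inhibitors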
Chain of Phospholipase A2 (P04054 whole entry): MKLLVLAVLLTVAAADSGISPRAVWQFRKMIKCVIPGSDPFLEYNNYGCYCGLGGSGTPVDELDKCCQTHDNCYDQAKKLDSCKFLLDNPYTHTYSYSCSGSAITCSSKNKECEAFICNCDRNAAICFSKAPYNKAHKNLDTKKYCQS

Cysteine protease ATG4B = Cysteine protease ATG4B (Homo sapiens, UniProt Q9Y4P1); assay type: functional;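 note: Fluorescence-based dose-response confirmation assay measuring inhibition of ATG4B activity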
Chain of Cysteine protease ATG4B (Q9Y4P1 whole entry): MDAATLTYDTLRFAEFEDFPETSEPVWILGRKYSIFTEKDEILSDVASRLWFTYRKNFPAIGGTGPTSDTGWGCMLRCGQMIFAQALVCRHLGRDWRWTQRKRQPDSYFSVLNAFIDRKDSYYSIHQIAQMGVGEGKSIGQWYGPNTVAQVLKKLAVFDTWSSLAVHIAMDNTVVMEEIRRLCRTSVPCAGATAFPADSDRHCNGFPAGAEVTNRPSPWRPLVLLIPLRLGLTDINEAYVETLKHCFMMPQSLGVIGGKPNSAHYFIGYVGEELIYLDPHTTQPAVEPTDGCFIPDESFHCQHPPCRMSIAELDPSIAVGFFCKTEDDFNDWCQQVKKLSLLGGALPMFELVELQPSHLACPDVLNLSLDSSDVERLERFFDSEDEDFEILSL

[15] = molecular target: Luciferin 4-monooxygenase (Photinus pyralis, UniProt P08659); assay: firefly luciferase enzyme inhibitors, dose response, biochemical, luminescence (AID 1891)
Chain of Luciferin 4-monooxygenase (P08659 whole entry): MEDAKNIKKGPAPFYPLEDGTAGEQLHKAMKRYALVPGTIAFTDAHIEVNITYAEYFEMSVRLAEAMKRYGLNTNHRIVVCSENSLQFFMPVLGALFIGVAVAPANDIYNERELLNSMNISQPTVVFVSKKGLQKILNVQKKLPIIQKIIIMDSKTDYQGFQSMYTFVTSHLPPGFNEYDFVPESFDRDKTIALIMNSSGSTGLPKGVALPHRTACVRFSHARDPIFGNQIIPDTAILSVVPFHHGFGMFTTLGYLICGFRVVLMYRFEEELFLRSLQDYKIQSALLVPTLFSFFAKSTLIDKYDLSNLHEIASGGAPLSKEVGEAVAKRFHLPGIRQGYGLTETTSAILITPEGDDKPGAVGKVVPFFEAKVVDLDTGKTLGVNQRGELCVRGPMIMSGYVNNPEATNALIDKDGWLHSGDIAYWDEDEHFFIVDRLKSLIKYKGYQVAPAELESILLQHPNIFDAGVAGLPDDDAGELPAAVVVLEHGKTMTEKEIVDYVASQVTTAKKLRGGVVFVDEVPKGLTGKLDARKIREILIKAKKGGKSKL

[16] = Luminescence Cell-Based Dose Confirmation HTS to Identify Inhibitors of Platelet Dense Granule Release. [Related pubchem assays: 1663 (Primary HTS), 1678 (Summary of Project)]; assay type: functional

With `Cc1ccccc1OCc1n(CC(=O)OC2CC(C)CCC2C(C)C)c2ccccc2[n+]1C.[Cl-]` (stereo unspecified) the EC50 [1] was > 32 µM (inactive), the EC50 [2] was 684 nM (active) and 429 nM (active) and the EC50 [3] was > 160 µM (inactive). The AC50 [4] was 4.93 µM (active), the IC50 [5] was 29.5 µM (active) and the AC50 [6] was 8.94 µM (active). For the same compound, the EC50 [7] was 0.693 µM (active), the AC50 (A-375) was 19 µM (active) and the AC50 (INS1) was 3.39 µM (active). For the same compound, the IC50 [8] was > 20 µM (inactive), the AC50 [9] was 6.17 µM (active) and the AC50 [10] was 7 µM (active). For the same compound, the “Absolute IC50 (XBP1)” value (X-box-binding protein 1) was 10 µM, the IC50 [11] was 1.52 µM (active) and the AC50 [12] was 7.51 µM (active). The AC50 [13] was 9.17 µM (active) and the IC50 [14] was 1.95 µM (active).

In the case of `OC(CNCc1ccc(Cl)c(Cl)c1)c1ccccc1` (stereo unspecified), the IC50 (Phospholipase A2) is reported as 9.81 µM (active), the IC50 (Cysteine protease ATG4B) is reported as 14.5 µM (active) and the EC50 [15] is reported as > 112 µM (not active). The EC50 [16] was 19 µM (active).
